# Experimental data as given in PMC11302339, “A series of pyrimidine-based antifungals with anti-mold activity disrupt ER function in Aspergillus fumigatus” (Microbiology Spectrum, 2024).
# Read-outs that look alike come from different tables or passages of the source.
# Assays:
# C. neoformans H99 = test: Generation of resistant isolates (high-density plating, serial passaging); type: cell-based, Cryptococcus neoformans
# Description: Finally, we attempted to generate resistant isolates to understand the rate of resistance and potentially uncover mechanism of action. First, to determine spontaneous rates, we performed high-density plating (~2 × 10^9 cells) of C. neoformans on YPD plates containing 64 µg/mL 1 ([24]). […] Next, we employed serial passaging of both C. neoformans H99 and Saccharomyces cerevisiae BY4741 to evaluate evolved resistance upon exposure to sub-MIC concentrations. Yeast cells were grown in a 96-well format in the presence of 1/4 MIC 1, then cultures were passaged to fresh media containing a twofold increase in drug concentration. At each passage, the inoculum was diluted ~1:100 to allow ~10 generations of growth for a total of at least 50 generations over the course of the experiment.
# [1] = system: S. cerevisiae heterozygous mutants; test: Chemical haploinsufficiency screen and spot dilution validation; type: cell-based; settings: Saccharomyces cerevisiae, read-out: inhibition of wild-type growth
# M. circinelloides = test: MIC testing (CLSI broth dilution); type: cell-based; settings: Mucor circinelloides; strain CBS277.49; CLSI conditions
# Description: (§1) MICs were determined using Clinical and Laboratory Standards Institute guidelines ([48], [49]). All yeasts were cultured overnight in 3 mL YPD at 30°C, then washed twice in sterile phosphate-buffered saline (PBS). Twofold serial dilutions of each drug were prepared in RMPI + MOPS, then 1 × 10^3 cells were added per well. For mold species, wells were inoculated with 1.25 × 10^3 conidia per well. Plates were incubated at 37°C for 24 (Candida spp. and S. cerevisiae), 48 (Aspergillus spp., M. circinelloides, S. apiospermum, and L. prolificans), or 72 (C. neoformans and F. oxysporum) hours. S. cerevisiae BY4743 MICs were tested in YPD due to nutritional requirements of this strain. Each assay was performed in technical duplicate in at least two independent experiments performed on different days.
# S. apiospermum = test: MIC testing (CLSI broth dilution); type: cell-based; settings: Scedosporium apiospermum; strain MYA3635 (lab reference strain); CLSI conditions
# Description: as §1
# C. glabrata = test: MIC testing (CLSI broth dilution); type: cell-based; settings: Nakaseomyces glabratus; strain KK2001; CLSI conditions
# Description: as §1
# A. fumigatus = test: MIC testing (CLSI broth dilution); type: cell-based; settings: Aspergillus fumigatus
# Description: as §1
# L. prolificans = test: MIC testing (CLSI broth dilution); type: cell-based; settings: Lomentospora prolificans; strain 90853; CLSI conditions
# Description: as §1
# F. oxysporum = test: MIC testing (CLSI broth dilution); type: cell-based; settings: Fusarium oxysporum; strain DUMC Fo, clinical isolate; CLSI conditions, 72 h
# Description: as §1
# C. neoformans = test: MIC testing (CLSI broth dilution); type: cell-based; settings: Cryptococcus neoformans
# Description: as §1
# [2] = Pharmacokinetics in mice (serum/plasma and brain); type: in vivo, CD-1 mice; settings: single 10 mg/kg intraperitoneal; for Cmax / half-life: female, CD-1, mouse, ip, CD1 mice; for half-life: read-out: half-life (T1/2)
# Description: Twenty-one female CD-1 mice were dosed intraperitoneally with 10 mg/kg 1. Whole blood was collected in a syringe coated with ACD. Plasma was processed from whole blood by centrifugation at 10,000 rpm for 10 min. Brain tissue was harvested and gently washed with 1× PBS to remove residual circulating blood. The tissue was weighed and snap frozen in liquid nitrogen.
# For the standards and quality controls, 98.0 and 98.8 µL of blank vendor plasma were added to a microfuge tube and spiked with 2.0 and 1.2 µL of initial standard. Standards, quality controls, and samples of 100 µL were then precipitated with 200 µL of methanol containing 0.15% formic acid and […]. The samples were vortexed 15 s, incubated at room temperature for 10 min, and centrifuged at 13,200 rpm twice in a standard microcentrifuge. The supernatant was then analyzed by LC-MS/MS. The vendor supplied the plasma used in standards and quality controls (QCs; lot # MSE460968, ACD anti-coagulant; Bioreclamation, LLC).
# Brain tissues were homogenized in 3× volume of PBS. For the standards and quality control samples, 98.0 and 98.8 µL of pooled blank brain were added to a microfuge tube and spiked with 2.0 or 1.2 µL of initial standard. Standards, quality control samples of 100 µL, were then precipitated with 200 µL of methanol containing 0.15% formic acid and 12.5 ng/mL IS (final concentrations). The samples were vortexed for 15 s, incubated at room temperature for 10 min, and centrifuged at 13,200 rpm twice in a standard microcentrifuge. The supernatant was then analyzed by LC-MS/MS.
smiles,measurement,setting,value
OC1CC(c2cc(N3CCC(CCc4ccccc4)CC3)ncn2)C1 (stereo not shown) [compound 1],"evolved resistance, serial passaging","C. neoformans H99; from 1/4 MIC, twofold increases, at least 50 generations",did not recover stable resistance
same,"spontaneous resistance, high-density plating",C. neoformans H99; ~2 × 10^9 cells on YPD with 64 µg/mL 1,unable to isolate resistant colonies
same,inhibition at 32 µg/mL,[1],~50%
same,MIC,M. circinelloides,16 µg/mL
same,MIC,S. apiospermum,2 µg/mL
same,MIC,C. glabrata,64 µg/mL
same,MIC,"A. fumigatus; 48 h, strain CEA10, CLSI conditions, 48 h, read-out: MIC",16 µg/mL
same,MIC,"A. fumigatus; ATCC13073, strain ATCC13073, CLSI conditions, read-out: MIC",8 µg/mL
same,MIC,"A. fumigatus; strain AF293, CLSI conditions, read-out: MIC",16 µg/mL
same,MIC,"A. fumigatus; strain S001, clinical isolate, CLSI conditions, read-out: MIC",8 µg/mL
same,MIC,"A. fumigatus; strain S003, clinical isolate, CLSI conditions, read-out: MIC",4 µg/mL
same,MIC,"A. fumigatus; strain SPF93 (voriconazole-susceptible parent), CLSI conditions, read-out: MIC",8 µg/mL
same,MIC,"A. fumigatus; strain SPF98, drug-resistant isolate (cyp51A TR34 L98H), CLSI conditions",8 µg/mL
same,MIC,"A. fumigatus; A. fumigatus reference strains and clinical isolates, read-out: MIC",8 to 16 µg/mL
same,MIC,L. prolificans,8 µg/mL
same,MIC,F. oxysporum,> 64 µg/mL
same,MIC,"C. neoformans; 72 h, strain H99, CLSI conditions",1 µg/mL
same,MIC,"C. neoformans; strain DUMC118, clinical isolate, CLSI conditions",2 µg/mL
same,MIC,"C. neoformans; strain DUMC138, clinical isolate, CLSI conditions",1 µg/mL
same,MIC,"C. neoformans; strain JEC21, CLSI conditions",2 µg/mL
same,MIC,C. neoformans; strain not named,2 µg/mL
same,time of Cmax post-administration,[2]; brain tissue,10 min
same,Cmax,[2]; brain tissue,2000 ng/g
same,half-life,[2]; brain tissue,295 min
same,Cmax,[2]; serum/plasma,491 ng/mL
same,half-life,[2]; serum/plasma,23 min
same,time of Cmax post-administration,[2]; serum,10 min
same,blood-brain barrier penetration,[2]; mice,penetrated the blood-brain barrier
